# pIC50: −log10 of the molar value.
# Biological target: T1, Human GO (Homo sapiens, UniProt Q9UJM8)
# T1 construct: purchased Novus Biologicals NBP1-72412
# T1 sequence (Q9UJM8 1-370): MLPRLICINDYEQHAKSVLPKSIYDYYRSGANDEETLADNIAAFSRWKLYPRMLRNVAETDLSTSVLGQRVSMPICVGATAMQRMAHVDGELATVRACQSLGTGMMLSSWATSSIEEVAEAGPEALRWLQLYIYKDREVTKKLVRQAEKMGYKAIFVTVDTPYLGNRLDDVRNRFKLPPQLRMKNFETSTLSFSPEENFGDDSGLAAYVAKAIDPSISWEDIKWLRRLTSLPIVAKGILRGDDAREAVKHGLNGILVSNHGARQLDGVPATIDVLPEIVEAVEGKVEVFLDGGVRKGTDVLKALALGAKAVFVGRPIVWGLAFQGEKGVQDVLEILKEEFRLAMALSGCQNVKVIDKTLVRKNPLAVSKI
# Experiment: GO enzymatic assay (coupled fluorescence/HRP assay, glycolate substrate)
# Format: biochemical
# Conditions: not given
# Outline: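 Coupled HRP/fluorescence read-out of glycolate oxidation by human GO in 50 mM potassium phosphate buffer (pH 7). Inhibitors added across a concentration range.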
row,SMILES,pIC50
1,"O=C(O)c1[nH]nnc1Oc1ccc(-c2ccc(Cl)cc2)cc1 [Compound 86, 4-((4′-chloro-[1,1′-biphenyl]-4-yl)oxy)-1H-1,2,3-triazole-5-carboxylic acid]",> 7.00
2,"O=C(O)c1[nH]nnc1Oc1ccc(Cl)c(Cl)c1 [Compound 88, 4-(3,4-dichlorophenoxy)-1H-1,2,3-triazole-5-carboxylic acid]",> 7.00
3,"O=C(O)c1[nH]nnc1Oc1ccc(F)c(F)c1 [Compound 94, 4-(3,4-difluorophenoxy)-1H-1,2,3-triazole-5-carboxylic acid]",> 7.00
4,"CC(C)(C)C(=O)OCn1nnc(Oc2ccc(Cl)c(Cl)c2)c1C(=O)O [Compound 102, 4-(3,4-dichlorophenoxy)-1-((pivaloyloxy)methyl)-1H-1,2,3-triazole-5-carboxylic acid]",6.00 to 7.00
5,"CC(C)C(=O)OCn1nnc(Oc2ccc(Cl)c(Cl)c2)c1C(=O)O [Compound 103, 4-(3,4-dichlorophenoxy)-1-((isobutyryloxy)methyl)-1H-1,2,3-triazole-5-carboxylic acid]",6.00 to 7.00
6,"CC(=O)OCn1nnc(Oc2ccc(Cl)c(Cl)c2)c1C(=O)O [Compound 104, 1-(acetoxymethyl)-4-(3,4-dichlorophenoxy)-1H-1,2,3-triazole-5-carboxylic acid]",6.00 to 7.00

# Same assay, conditions: Table 1; read-out: Range (range of IC50 values calculated from the enzymatic assays)
row,SMILES,pIC50
1,"O=C(O)c1[nH]nnc1Nc1ccc(Cl)c2ccccc12 [Compound 78, 4-((4-chloronaphthalen-1-yl)amino)-1H-1,2,3-triazole-5-carboxylic acid]",6.00 to 7.00
2,"O=C(O)c1[nH]nnc1Nc1ccc2ncsc2c1 [Compound 79, 4-(benzo[d]thiazol-6-ylamino)-1H-1,2,3-triazole-5-carboxylic acid]",5.00 to 6.00
3,"O=C(O)c1[nH]nnc1Nc1ccc(F)c(F)c1 [Compound 80, 4-((3,4-difluorophenyl)amino)-1H-1,2,3-triazole-5-carboxylic acid]",6.00 to 7.00
4,"CC(C)(C)C(=O)OCOC(=O)c1[nH]nnc1Nc1ccc(-c2ccc(Cl)cc2)cc1 [Compound 81, (pivaloyloxy)methyl 4-((4′-chloro-[1,1′-biphenyl]-4-yl)amino)-1H-1,2,3-triazole-5-carboxylate]",5.00 to 6.00
5,"O=C(O)c1[nH]nnc1Nc1ccc2cc(Cl)ccc2c1 [Compound 82, 4-((6-chloronaphthalen-2-yl)amino)-1H-1,2,3-triazole-5-carboxylic acid 2,2,2-trifluoroacetate]",6.00 to 7.00
6,"O=C(O)c1[nH]nnc1Nc1ccc(OC(F)(F)F)cc1 [Compound 83, 4-((4-(trifluoromethoxy)phenyl)amino)-1H-1,2,3-triazole-5-carboxylic acid]",6.00 to 7.00
7,"O=C(O)c1[nH]nnc1N1CCc2ccccc2C1 [Compound 84, 4-(3,4-dihydroisoquinolin-2(1H)-yl)-1H-1,2,3-triazole-5-carboxylic acid 2,2,2-trifluoroacetate]",6.00 to 7.00
8,"O=C(O)c1[nH]nnc1Nc1ccc2cc(Br)ccc2c1 [Compound 85, 4-((6-bromonaphthalen-2-yl)amino)-1H-1,2,3-triazole-5-carboxylic acid 2,2,2-trifluoroacetate]",> 7.00
9,"O=C(O)c1[nH]nnc1Oc1ccc(-c2ccc(OC(F)(F)F)cc2)cc1 [Compound 87, 4-((4′-(trifluoromethoxy)-[1,1′-biphenyl]-4-yl)oxy)-1H-1,2,3-triazole-5-carboxylic acid]",> 7.00
10,"O=C(O)c1[nH]nnc1Oc1ccc2cc(Br)ccc2c1 [Compound 89, 4-((6-bromonaphthalen-2-yl)oxy)-1H-1,2,3-triazole-5-carboxylic acid]",> 7.00
11,"O=C(O)c1[nH]nnc1OC1CCN(c2ccc(OC(F)(F)F)cc2)C1 (stereo not drawn) [Compound 90, 4-((1-(4-(trifluoromethoxy)phenyl)pyrrolidin-3-yl)oxy)-1H-1,2,3-triazole-5-carboxylic acid]",> 7.00
12,"O=C(O)c1[nH]nnc1Oc1cc(Cl)cc(Cl)c1 [Compound 91, 4-(3,5-dichlorophenoxy)-1H-1,2,3-triazole-5-carboxylic acid]",> 7.00
13,"O=C(O)c1nn[nH]c1Oc1ccc(Cl)c2ccccc12 [Compound 92, 4-((4-chloronaphthalen-1-yl)oxy)-1H-1,2,3-triazole-5-carboxylic acid]",> 7.00
14,"COC(=O)c1[nH]nnc1Oc1ccc2cc(Br)ccc2c1 [Compound 93, methyl 4-((6-bromonaphthalen-2-yl)oxy)-1H-1,2,3-triazole-5-carboxylate]",< 5.00
15,"O=C(O)c1[nH]nnc1Oc1ccc(Cl)cc1Cl [Compound 95, 4-(2,4-dichlorophenoxy)-1H-1,2,3-triazole-5-carboxylic acid]",> 7.00
16,"O=C(O)c1[nH]nnc1Oc1ccc(OC(F)(F)F)cc1 [Compound 96, 4-(4-(trifluoromethoxy)phenoxy)-1H-1,2,3-triazole-5-carboxylic acid]",> 7.00
17,"O=C(O)c1[nH]nnc1Oc1ccc2c(c1)CCCC2 [Compound 97, 4-((5,6,7,8-tetrahydronaphthalen-2-yl)oxy)-1H-1,2,3-triazole-5-carboxylic acid]",> 7.00

row,SMILES,pIC50
1,"O=C(O)c1[nH]nnc1Oc1ccc2ncsc2c1 [Compound 99, 4-(benzo[d]thiazol-6-yloxy)-1H-1,2,3-triazole-5-carboxylic acid 2,2,2-trifluoroacetate]",> 7.00
2,"O=C(O)c1[nH]nnc1Oc1cc(Cl)ccc1Cl [Compound 100, 4-(2,5-dichlorophenoxy)-1H-1,2,3-triazole-5-carboxylic acid]",> 7.00
3,"CC(=O)OCn1nnc(Oc2ccc3cc(Br)ccc3c2)c1C(=O)O [Compound 101, 1-(acetoxymethyl)-4-((6-bromonaphthalen-2-yl)oxy)-1H-1,2,3-triazole-5-carboxylic acid]",6.00 to 7.00
4,"CC(=O)OCOC(=O)c1[nH]nnc1Oc1ccc2cc(Br)ccc2c1 [Compound 105, acetoxymethyl 4-((6-bromonaphthalen-2-yl)oxy)-1H-1,2,3-triazole-5-carboxylate]",5.00 to 6.00
5,"O=C(O)c1[nH]nnc1Oc1ccc2cc(Cl)ccc2c1 [Compound 106, 4-((6-chloronaphthalen-2-yl)oxy)-1H-1,2,3-triazole-5-carboxylic acid 2,2,2-trifluoroacetate]",> 7.00
6,"CC(C)(C)C(=O)OCOC(=O)c1[nH]nnc1Oc1ccc(Cl)c(Cl)c1 [Compound 107, (pivaloyloxy)methyl 4-(3,4-dichlorophenoxy)-1H-1,2,3-triazole-5-carboxylate]",5.00 to 6.00
7,"CC(C)C(=O)OCOC(=O)c1[nH]nnc1Oc1ccc(Cl)c(Cl)c1 [Compound 108, (isobutyryloxy)methyl 4-(3,4-dichlorophenoxy)-1H-1,2,3-triazole-5-carboxylate]",6.00 to 7.00
8,"CC(=O)OCOC(=O)c1[nH]nnc1Oc1ccc(Cl)c(Cl)c1 [Compound 109, acetoxymethyl 4-(3,4-dichlorophenoxy)-1H-1,2,3-triazole-5-carboxylate]",> 7.00
9,"O=C(O)c1[nH]nnc1OC1CCc2cc(Cl)c(Cl)cc2C1 (stereo not drawn) [Compound 111, 4-((6,7-dichloro-1,2,3,4-tetrahydronaphthalen-2-yl)oxy)-1H-1,2,3-triazole-5-carboxylic acid 2,2,2-trifluoroacetate]",> 7.00
10,"O=C(OC1CC1)c1[nH]nnc1Oc1ccc(Cl)c(Cl)c1 [Compound 112, cyclopropyl 4-(3,4-dichlorophenoxy)-1H-1,2,3-triazole-5-carboxylate]",< 5.00
11,"O=C(O)c1[nH]nnc1Oc1ccc2cccnc2c1 [Compound 113, 4-(quinolin-7-yloxy)-1H-1,2,3-triazole-5-carboxylic acid 2,2,2-trifluoroacetate]",> 7.00
12,"O=C(O)c1[nH]nnc1Oc1cccc(OC(F)(F)F)c1 [Compound 114, 4-(3-(trifluoromethoxy)phenoxy)-1H-1,2,3-triazole-5-carboxylic acid]",> 7.00
13,"O=C(O)c1[nH]nnc1Oc1cnc2ccccc2c1 [Compound 115, 4-(quinolin-3-yloxy)-1H-1,2,3-triazole-5-carboxylic acid 2,2,2-trifluoroacetate]",6.00 to 7.00
14,"O=C(OC1CC1)c1[nH]nnc1Oc1ccc2c(c1)CCCC2 [Compound 116, cyclopropyl 4-((5,6,7,8-tetrahydronaphthalen-2-yl)oxy)-1H-1,2,3-triazole-5-carboxylate]",< 5.00
15,"O=C(O)c1[nH]nnc1OC1CCc2ccccc2C1 (stereo not drawn) [Compound 117, 4-((1,2,3,4-tetrahydronaphthalen-2-yl)oxy)-1H-1,2,3-triazole-5-carboxylic acid 2,2,2-trifluoroacetate]",> 7.00
16,"O=C(O)c1[nH]nnc1Oc1ccc2ccncc2c1 [Compound 118, 4-(isoquinolin-7-yloxy)-1H-1,2,3-triazole-5-carboxylic acid 2,2,2-trifluoroacetate]",> 7.00
17,"O=C(O)c1[nH]nnc1Oc1ccc(-c2ccc(OC(F)(F)F)cc2)c(Cl)c1 [Compound 119, 4-((2-chloro-4′-(trifluoromethoxy)-[1,1′-biphenyl]-4-yl)oxy)-1H-1,2,3-triazole-5-carboxylic acid]",> 7.00

# Same assay, conditions: Table 6; GO enzymatic assay; read-out: Range (range of IC50 values calculated from the enzymatic assays)
row,SMILES,pIC50
1,"O=C(O)c1[nH]nnc1O[C@@H]1CCc2cc(Cl)c(Cl)cc2C1 [Compound 111-1, (R)-4-((6,7-dichloro-1,2,3,4-tetrahydronaphthalen-2-yl)oxy)-1H-1,2,3-triazole-5-carboxylic acid]",> 7.00
2,"O=C(O)c1[nH]nnc1O[C@H]1CCc2cc(Cl)c(Cl)cc2C1 [Compound 111-2, (S)-4-((6,7-dichloro-1,2,3,4-tetrahydronaphthalen-2-yl)oxy)-1H-1,2,3-triazole-5-carboxylic acid]",> 7.00
